# Measured values taken from ChEMBL document CHEMBL1201862, “PubChem BioAssay data set” (2004).
# The source made the active and inactive calls.
# What was measured:
# [1] = target: FAD-linked sulfhydryl oxidase ALR (Homo sapiens, UniProt P55789); assay: ALR-catalysed DTT oxidation blockers – biochemical, H2O2 detection, luminescence, cherry-pick, dose response (AID 493248)
# [2] = system: Streptococcus sp. 'group A'; assay: Streptococcus pyogenes SK(-)GAS viability under kanamycin – luminescence, BacTiterGlo, confirmation, counter-screen for streptokinase expression inhibitor project, dose response (AID 1900); assay type: functional, organism-based
# [3] = alpha-synuclein stem-loop luciferase translation blockers – H4 neuroglioma cells, luminescence, confirmation (AID 1988); assay type: functional, cell-based
# [4] = Luminescence Cell-Based Dose Response HTS to Identify Inhibitors of 5'UTR Stem-Loop Driven Prion Protein mRNA Translation in H4 Neuroglioblastoma Cells. [Related pubchem assays: 1827 (Project Summary), 1813 (Primary HTS)]; assay type: functional
# [5] = system: Streptococcus; assay: GAS UMAA2166 growth inhibition – luminescence, BacTiterGlo, counter-screen for streptokinase expression inhibitor project, dose response (AID 1915); assay type: functional, organism-based;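 note: potency for reduction of bacterial viability or growth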
# [6] = luciferase reporter signal suppression in cells – H4 neuroglioma cells, luminescence, dose response (AID 1990); assay type: functional, cell-based
# [7] = target: T1, Short transient receptor potential channel 4 (Mus musculus, UniProt Q9QUQ5); assay: calcium entry via TRPC4 opening agents – cell-based, HEK293 TRPC4/mu-opioid, Fluo-4 calcium, dose response (AID 434937); assay type: functional
# T1 sequence (Q9QUQ5 whole entry): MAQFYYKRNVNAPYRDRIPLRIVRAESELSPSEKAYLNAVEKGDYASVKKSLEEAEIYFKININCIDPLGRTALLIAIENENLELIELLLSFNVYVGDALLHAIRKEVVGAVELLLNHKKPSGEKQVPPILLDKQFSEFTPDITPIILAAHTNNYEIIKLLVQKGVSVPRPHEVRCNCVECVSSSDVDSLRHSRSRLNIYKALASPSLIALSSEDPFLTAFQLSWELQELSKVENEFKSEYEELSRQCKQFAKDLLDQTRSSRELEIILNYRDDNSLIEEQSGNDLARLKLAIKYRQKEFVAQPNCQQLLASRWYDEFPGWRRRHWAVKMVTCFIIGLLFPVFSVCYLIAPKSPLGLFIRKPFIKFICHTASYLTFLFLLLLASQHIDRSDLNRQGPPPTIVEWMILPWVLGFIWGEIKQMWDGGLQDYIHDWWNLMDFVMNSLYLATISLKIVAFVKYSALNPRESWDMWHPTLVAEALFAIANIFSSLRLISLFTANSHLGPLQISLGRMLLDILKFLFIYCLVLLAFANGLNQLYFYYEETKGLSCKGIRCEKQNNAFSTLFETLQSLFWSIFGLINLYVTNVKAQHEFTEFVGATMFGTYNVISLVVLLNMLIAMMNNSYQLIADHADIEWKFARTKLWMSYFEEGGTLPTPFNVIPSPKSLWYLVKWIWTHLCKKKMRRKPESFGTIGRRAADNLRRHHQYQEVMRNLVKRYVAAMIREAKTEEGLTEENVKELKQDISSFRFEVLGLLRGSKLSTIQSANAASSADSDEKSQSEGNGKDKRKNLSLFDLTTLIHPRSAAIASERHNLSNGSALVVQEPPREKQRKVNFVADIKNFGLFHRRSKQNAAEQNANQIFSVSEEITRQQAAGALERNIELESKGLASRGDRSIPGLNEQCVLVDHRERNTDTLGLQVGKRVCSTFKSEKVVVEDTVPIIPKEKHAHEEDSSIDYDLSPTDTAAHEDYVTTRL
# [8] = target: Genome polyprotein (dengue virus type 2, UniProt P29990); assay: flavivirus cap methylation enzyme inhibition – biochemical, confirmation dose response, primary screen (AID 588689); assay type: functional
# [9] = system: H9c2; assay: cells; assay type: functional, cell-based; settings: Rattus norvegicus, H9c2, Myocardium;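 note: confirmatory concentration-response retest of ultra-high-throughput screening hits for modulation of myocardial damage; cell death induced by hydrogen peroxide oxidative stress; compound pretreatment for 60 min then peroxide exposure for 2 h; potency is for protecting the cells against peroxide damage rather than for killing them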
# [10] = Trypanosoma cruzi growth suppression in host cells – NIH3T3 host cells, beta-gal luminescence, confirmation (AID 2044); assay type: functional, cell-based;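 note: intracellular parasites grown in NIH/3T3 mouse fibroblasts as host cells; luminescent beta-galactosidase reporter signal from transgenic T. cruzi replicating inside host cells; inhibitors lower the luminescence signal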
# [11] = system: Vero; assay: cells; assay type: functional; settings: Chlorocebus sabaeus
# [12] = NIH3T3 cell viability loss – ATP luminescence, mouse fibroblasts, counter-screen, dose response (AID 2010); assay type: functional, cell-based;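 note: cells exposed to compound for about 90 hours before reading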
# [13] = NIH-3T3 fibroblast cytotoxicity, dose response, cytotoxicity control, cell-based, fluorescence, Alamar Blue, secondary assay (AID 2327); assay type: functional;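 note: NIH-3T3 mouse fibroblasts cultured with fluconazole at 8 µg/mL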
# [14] = fluconazole-exposed Candida albicans growth modulators – fluorescence, retest, confirmation (AID 2467); assay type: functional, cell-based
# [15] = target: Glucose-6-phosphate 1-dehydrogenase (Homo sapiens, UniProt P11413); assay: inhibition of Homo sapiens G6PD, dose series – biochemical, fluorescence, selectivity assay for P. falciparum G6PD inhibitor project, dose response (AID 504792); assay type: functional
# [16] = target: Cytochrome P450 2C9 (Homo sapiens, UniProt P11712)
# [17] = target: Cytochrome P450 2D6 (Homo sapiens, UniProt P10635);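 note: CYP2D6 member of a cytochrome P450 panel assay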
# [18] = target: T2, Protein RecA (Mycobacterium tuberculosis, UniProt P9WHJ3); assay: Fluorescence Cell-Free Homogeneous Dose Retest to Identify Inhibitors of RecA-Intein Splicing Activity. [Related pubchem assays (depositor defined):AID2097, AID2223, AID489010, AID492950]; assay type: functional
# T2 sequence (P9WHJ3 whole entry): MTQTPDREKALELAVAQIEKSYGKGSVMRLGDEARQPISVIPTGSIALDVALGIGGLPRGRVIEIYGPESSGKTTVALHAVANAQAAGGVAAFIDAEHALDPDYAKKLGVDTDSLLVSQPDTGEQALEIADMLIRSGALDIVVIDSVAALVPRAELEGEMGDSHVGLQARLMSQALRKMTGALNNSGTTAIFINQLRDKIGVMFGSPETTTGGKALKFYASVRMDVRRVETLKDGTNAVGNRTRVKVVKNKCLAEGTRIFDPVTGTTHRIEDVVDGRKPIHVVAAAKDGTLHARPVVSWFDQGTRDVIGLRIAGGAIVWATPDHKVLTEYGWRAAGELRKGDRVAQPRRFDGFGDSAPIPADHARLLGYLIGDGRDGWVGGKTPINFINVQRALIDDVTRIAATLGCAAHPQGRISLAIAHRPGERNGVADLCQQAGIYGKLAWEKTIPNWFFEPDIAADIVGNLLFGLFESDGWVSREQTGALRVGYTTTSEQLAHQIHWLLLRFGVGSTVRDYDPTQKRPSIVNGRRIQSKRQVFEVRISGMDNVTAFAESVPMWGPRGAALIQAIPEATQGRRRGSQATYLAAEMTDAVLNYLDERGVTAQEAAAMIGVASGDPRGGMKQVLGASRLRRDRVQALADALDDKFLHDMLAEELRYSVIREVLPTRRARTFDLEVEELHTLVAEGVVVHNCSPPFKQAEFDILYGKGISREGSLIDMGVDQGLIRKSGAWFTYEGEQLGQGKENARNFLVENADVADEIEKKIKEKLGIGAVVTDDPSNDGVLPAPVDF
# [19] = target: T3, Replicative DNA helicase DnaB (Mycobacterium tuberculosis, UniProt P9WMR3); assay: DnaB intein splicing inhibitors, dose response, biochemical, cell-free fluorescence (AID 449749); assay type: functional
# T3 sequence (P9WMR3 whole entry): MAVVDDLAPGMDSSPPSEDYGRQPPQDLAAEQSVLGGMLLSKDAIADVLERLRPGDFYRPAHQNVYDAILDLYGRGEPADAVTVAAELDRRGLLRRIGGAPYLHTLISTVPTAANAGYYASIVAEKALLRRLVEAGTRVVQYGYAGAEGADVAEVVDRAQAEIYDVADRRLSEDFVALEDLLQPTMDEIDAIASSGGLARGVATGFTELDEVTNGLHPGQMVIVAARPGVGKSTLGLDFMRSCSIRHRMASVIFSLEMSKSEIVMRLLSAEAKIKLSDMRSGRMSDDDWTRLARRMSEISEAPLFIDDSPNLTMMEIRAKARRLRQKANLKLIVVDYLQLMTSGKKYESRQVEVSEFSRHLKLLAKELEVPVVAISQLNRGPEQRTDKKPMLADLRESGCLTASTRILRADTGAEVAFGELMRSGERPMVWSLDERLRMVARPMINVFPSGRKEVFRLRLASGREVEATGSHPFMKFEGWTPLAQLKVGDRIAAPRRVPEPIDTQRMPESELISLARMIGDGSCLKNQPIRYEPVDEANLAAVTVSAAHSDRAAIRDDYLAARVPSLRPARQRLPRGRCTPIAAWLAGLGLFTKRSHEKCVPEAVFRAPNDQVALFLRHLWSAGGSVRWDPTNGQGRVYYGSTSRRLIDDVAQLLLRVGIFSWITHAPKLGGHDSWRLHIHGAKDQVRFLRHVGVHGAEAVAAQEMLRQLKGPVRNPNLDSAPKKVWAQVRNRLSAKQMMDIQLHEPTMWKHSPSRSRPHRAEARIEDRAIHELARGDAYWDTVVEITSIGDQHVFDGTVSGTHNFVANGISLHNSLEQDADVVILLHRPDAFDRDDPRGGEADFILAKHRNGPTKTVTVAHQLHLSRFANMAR
# [20] = target: Cytochrome P450 3A4 (Homo sapiens, UniProt P08684);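 note: CYP3A4 tested as one member of a cytochrome P450 panel screen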
compound,measurement,setting,value
Cc1cc(C(=O)NNC(=O)CCN2CCN(c3ccccc3)CC2)c2ccccc2n1,AC50,[1],5.94 µM (active)
CCOc1ccc(/C=C2/Sc3ccc(C(=O)N4CCN(C(=O)c5ccco5)CC4)cc3N(C)C2=O)cc1OC,EC50,[2],2.63 µM (active)
same,EC50,[3],97.7 µM (active)
same,EC50,[4],> 120 µM (not active)
same,EC50,[5],5.98 µM (active)
same,EC50,[6],105 µM (active)
Oc1ccc(-c2onc3ccc(Cl)cc23)cc1,AC50,[1],6.97 µM (active)
O=C(NCC(=O)N1CCN(c2ccccc2)CC1)c1cccs1,AC50,[1],21.4 µM (active)
CCn1c(S)nnc1-c1ccccc1O,AC50,[1],9.17 µM (active)
CC1CC(C)CN(CCCNC(=O)c2ccc3c(c2)N(Cc2ccccc2)C(=O)c2ccccc2[S+]3[O-])C1 (configuration not stated),EC50,[7],0.841 µM (active)
Sc1nnc(/C=C/c2ccccc2)o1,AC50,[1],29.9 µM (active)
CCOc1ccc(N2C(=O)NC(=O)/C(=C\c3ccccc3[N+](=O)[O-])C2=O)cc1,IC50,[8],30.5 µM (active)
c1coc(-c2nnc3sc(-c4cccs4)nn23)c1,IC50,[9],15.6 µM (active)
CCc1ccc(C(=O)c2cnc3ccc(OC)cc3c2N2CCN(CC)CC2)cc1,EC50,[7],5.96 µM (active)
COc1cccc(C(=O)N(C)CC2CCN(CCc3cccc(C(F)(F)F)c3)CC2)c1,EC50,[7],0.596 µM (active)
COc1ccccc1C(=O)NNC(=S)NC(=O)c1cc(OC)c(OC)c(OC)c1,EC50,[2],1.25 µM (active)
same,EC50,[10],0.158 µM (active)
same,CC50,[11],13.6 µM (active)
same,EC50,[5],2.5 µM (active)
same,EC50,[12],6.32 µM (active)
same,EC50,[13],> 150 µM (inactive)
same,EC50,[14],2.49 µM (active)
CCOC(=O)c1ccc(/[N+]([O-])=C/c2ccccc2)cc1,IC50,[15],> 80 µM (inactive)
Cc1cccc(C(=O)N2CCc3cc(-c4csc(NC(=O)CN5CCCC5)n4)ccc32)c1,CC50,[11],> 25 µM (active)
CC(C)c1nnc(NC(=O)c2cccc(-n3cnnn3)c2)s1,IC50,[15],50 µM (inactive)
CCN(CC)CCCOc1ccc(Cl)c(Cl)c1,EC50,[7],2.37 µM (active)
CC(=O)n1cc([C@H]2C=C(C(=O)NCc3ccccc3)O[C@@H](OCc3ccc(CO)cc3)C2)c2ccccc21,EC50,[7],8.41 µM (active)
Cc1ccc2nc(O)c(CN(CCCN3CCOCC3)C(=O)Nc3ccc(Cl)cc3)cc2c1,IC50,[9],> 79 µM (inactive)
Cc1c(/C=C/C(=O)c2ccc(Cl)s2)cnn1C,IC50,[15],> 80 µM (inactive)
CC(NC(=O)CCSc1nc(-c2ccco2)cc(C(F)(F)F)n1)c1ccccc1 (configuration not stated),AC50,[16],15.8 µM (inconclusive)
same,AC50,[17],15.8 µM (inconclusive)
CC1=NN(c2ccccc2)C(=O)/C1=C/c1cccc(C)c1,EC50,[18],1.58 µM (active)
same,IC50,[8],50.5 µM (active)
same,AC50,[19],3.59 µM (active)
Cc1cccc(C)c1OCCn1nc(C(=O)O)c2ccccc2c1=O,IC50,[9],> 79 µM (inactive)
O=c1oc2cc(Br)ccc2n1CSC1=NCCS1,AC50,[1],0.033 µM (active)
CN1CCc2nc3ccccc3c(C(=O)OCC(=O)N(CCC#N)c3ccccc3)c2C1,IC50,[9],> 79 µM (inactive)
COc1ccc(-c2csc(NC(=O)c3cccc(N4C(=O)CCC4=O)c3)n2)cc1OC,IC50,[9],> 79 µM (inactive)
CC(C)c1ccc(NC2CCCN(C(=O)c3cnc4ccccn4c3=O)C2)cc1 (configuration not stated),AC50,[1],8.31 µM (active)
CCOC(=O)C1=C(C)N=C(C)C(=C(O)OCC)C1C(=O)OCC(=O)NC(C)C (configuration not stated),IC50,[9],> 79 µM (inactive)
CCN(CC(=O)Nc1cc(Cl)ccc1C)C(=O)C1CCN(c2ncnc3sc(C)c(C)c23)CC1,IC50,[9],12.7 µM (active)
O=C(N/N=C\c1ccccn1)c1cccc(C(=O)N/N=C\c2ccccn2)n1,IC50,[9],> 79 µM (inactive)
Cc1ncc(CO)c2cc(C(=O)Nc3ccccc3Cl)/c(=N/c3cccc(C(N)=O)c3)oc12,IC50,[9],12.4 µM (active)
COc1cccc(/C=N/NC(=O)CSc2cccc3cccnc23)c1,IC50,[15],> 80 µM (inactive)
COc1cc(/C=N/N2CCCCC2)cc([N+](=O)[O-])c1O,AC50,[1],2.71 µM (active)
C=CCN1CCc2cccc3c2[C@@H]1Cc1ccc(O)c(O)c1-3,AC50,[16],31.6 µM (inconclusive)
same,AC50,[20],31.6 µM (inconclusive)
same,AC50,[17],31.6 µM (inconclusive)
O=[N+]([O-])c1ccc(N/N=C/c2cn(Cc3ccc(F)cc3)c3ccccc23)nc1,EC50,[3],12 µM (active)
same,EC50,[4],15.2 µM (active)
same,EC50,[6],25.8 µM (active)
COc1ccc(-n2cc(CNCCCn3ccnc3)c(-c3cccc(F)c3)n2)cc1,CC50,[11],> 25 µM (active)
